Test system: C-32, A549, MDA-MB-231 and HFF-1 cells
Test: Crystal violet, WST-1 and LDH assays of 3c
Type: cell-based
Details: 3c in medium above 0.3 µM, 72 h; particularly in A549 and MDA-MB-231 cells
Experimental: The effect of the compound on cell viability was determined using, in addition to the WST-1 assay, the crystal violet assay and the LDH (lactate dehydrogenase) assay. Furthermore, a wound healing test (indicator of cell proliferation and migration capacity) and assessment of gene expression (in the transcription phase) of BCL-2, BAX, TP53, P21, and H3 were performed.
An increase in the number of dead cells is shown by the absorbance line in the LDH test.
Cells were seeded in 96-well plates at 5000/well in 100 μL of medium. After 24 h of incubation, the medium was replaced with a new one with the addition of the test substance. […]
Crystal violet test: The crystal violet (Sigma-Aldrich, Darmstadt, Germany) test determines the relative number of cells based on the amount of dye bound to the DNA of cells in the culture. The absorbance measurement was performed at a wavelength of λ = 540 nm (reference wavelength λ = 690 nm).
WST-1 test: The WST-1 test (Roche Diagnostics, Mannheim, Germany) allows one to determine the relative number of cells in cultures. Absorbance is directly proportional to the number of cells and their metabolic activity. The absorbance measurement is performed at λ = 450 nm (reference wave 600 nm). […]

C#CCN(C)S(=O)(=O)c1ccc(O)c2ncccc12 [3c, 8-Hydroxy-N-methyl-N-(prop-2-yn-1-yl)quinoline-5-sulfonamide]
cell number in cultures (cell viability and cytotoxicity assays): significant decrease in cell number

From article PMC11396667, “Design, Synthesis, and Anticancer and Antibacterial Activities of Quinoline-5-Sulfonamides” (Molecules, 2024)
